Experimental data as given in ChEMBL document CHEMBL3046045, “Synthesis of 7-methoxyapigeninidin and its fungicidal activity against Gloeocercospora sorghi” (1996).
Active and inactive are the calls of the source. The rule behind the calls is not given here.

Assays:
Pyricularia oryzae [1] = assay: Antifungal activity against Magnaporthe oryzae assessed as radial growth inhibition at 100 ppm; format: functional, organism-based
Pyricularia oryzae [2] = assay: Antifungal activity against Magnaporthe oryzae assessed as inhibition of spore germination at 100 ppm; format: functional, organism-based
Microdochium sorghi [3] = assay: Antifungal activity against Gloeocercospora sorghi in potato dextrose agar medium assessed as inhibition of radial growth at 100 ppm; format: functional
Microdochium sorghi [4] = assay: Antifungal activity against Gloeocercospora sorghi in potato dextrose agar medium assessed as inhibition of radial growth; format: functional
Pyricularia oryzae [5] = assay: Antifungal activity against Magnaporthe oryzae assessed as inhibition of spore germination; format: functional

Oc1ccc(-c2ccc3c(O)cc(O)cc3[o+]2)cc1 [APIGENIDIN] was tested, and the inhibition (Pyricularia oryzae [1]) was “inactive”, the inhibition (Pyricularia oryzae [2]) was “inactive” and the inhibition at 100 ppm (Microdochium sorghi [3]) was 25%.
In the case of COc1cc(O)c2ccc(-c3ccc(O)cc3)[o+]c2c1.[Cl-] [7-METHOXYAPIGENINIDIN], the inhibition (Pyricularia oryzae [1]) is reported as “inactive”, the I50 (Microdochium sorghi [4]) is reported as 50 ppm and the I50 (Pyricularia oryzae [5]) is reported as 50 ppm.
